{
  "source": "paper PMC7525318",
  "about": "“Identification of Six Flavonoids as Novel Cellular Antioxidants and Their Structure-Activity Relationship” (Oxidative Medicine and Cellular Longevity, 2020)",
  "key": {"HepG2 cells [1]": {"test_system": "HepG2 cells", "assay": "Cellular antioxidant activity (CAA) assay", "format": "cell-based", "conditions": "Homo sapiens, DCFH-DA 25 μM, ABAP 600 μM", "procedure": "The CAA assay was tested as described previously. 6 × 10^4 cells/well of HepG2 cells were seeded at a 96-well microplate with 100 μL of growth medium/well. […] Then, the cells were washed with PBS and treated with 100 μL of 600 μM ABAP (dissolved in HBSS), and the 96-well microplate was immediately placed into an Infinite SpectraMax i3x Multi-Mode Detection plate-reader at 37°C. […]"}, "HepG2 cells [2]": {"test_system": "HepG2 cells", "assay": "Cytotoxicity assay (CCK-8)", "format": "cell-based", "conditions": "range of 10-160 μM", "procedure": "(§1) The cytotoxicity and antiproliferative activity assays were performed by using the CCK-8 assay kit. Briefly, HepG2 cells were cultured at a density of 4 × 10^4 cells/well or 2.5 × 10^4 cells/well in a 96-well microplate with growth medium. After incubation at 37°C, the growth medium is treated with 100 μL of growth medium containing different concentrations of tested compounds for 24 h or 72 h. The wells having growth medium without the tested compound served as control. Then, the cells were incubated with 10 μL/well CCK-8 solutions for 2 h at 37°C. The absorbance values of each well were measured at 450 nm using a microplate reader (SpectraMax i3x, ForteBio Analytics Co., Ltd., USA). The cytotoxic activity and antiproliferative effects of the tested compound was calculated as(1) Cytotoxicity %=1−As/Ac×100%, (2) Cell proliferation %=As/Ac×100%, where As is the absorbance of the well with compound; Ac is the absorbance of control."}, "HepG2 cells [3]": {"test_system": "HepG2 cells", "assay": "Antiproliferative activity assay (CCK-8)", "format": "cell-based", "procedure": "as §1"}, "[4]": {"assay": "Oxygen radical antioxidant capacity (ORAC) assay", "conditions": "Trolox equivalents; AAPH, fluorescein", "procedure": "The ORAC assay was evaluated as previously described by Cao et al. with some modifications. 50 μL of samples or Trolox with different concentrations and the fluorescein solution was added to a 96-well microplate, which was incubated at 37°C for 10 min. […] The ORAC values were calculated by the regression equation between the Trolox concentration and the net area under the curve (expressed as μmol Trolox eq/μmol sample)."}, "catalase (CAT)": {"test_system": "catalase (CAT)", "assay": "Intracellular CAT activity in ABAP-treated HepG2 cells", "format": "cell-based", "conditions": "for CAT activity of PC value: then ABAP, % of PC value", "procedure": "(§2) HepG2 cells were seeded (1 × 10^6 cells/well) in six-well plates. After incubation for 24 h, the cells were pretreated with different concentration samples. Medium was washed by PBS and treated with 600 μM ABAP. The cells were collected and treated with cell lysis buffer (20 mM Tris at pH 7.5, 150 mM NaCl and 1% Triton X-100) at 4°C. The lysed cells were used to measure the intracellular activities of SOD, CAT, and GSH-Px by kits according to the manufacturer instructions (Wen 2015). Cells without sample and ABAP treatment were used as positive control (PC), while cells treated with ABAP but not sample were used as negative control (NC)."}, "[5]": {"test_system": "superoxide dismutase (SOD)", "assay": "Intracellular SOD activity in ABAP-treated HepG2 cells", "format": "cell-based", "conditions": "then ABAP", "procedure": "as §2"}, "[6]": {"assay": "DPPH radical scavenging activity", "conditions": "0.1 mM DPPH in methanol, 37°C, 30 min", "procedure": "This assay was conducted as previously described by Wen et al. with some modifications. DPPH was freshly prepared in methanol at a concentration of 0.1 mM. The solution (20 μL) containing the tested compounds with different concentrations was added into the DPPH solution (180 μL) in the 96-well plates. […] The IC50 value was calculated on the scavenging activity against DPPH radical."}, "[7]": {"test_system": "glutathione peroxidase (GSH-Px)", "assay": "Intracellular GSH-Px activity in ABAP-treated HepG2 cells", "format": "cell-based", "conditions": "for GSH-Px activity of PC value: then ABAP, % of PC value", "procedure": "as §2"}, "[8]": {"conditions": "HepG2, pretreatment before ABAP"}},
  "note": "Like-named read-outs stand apart in the source and are kept apart here.",
  "data": [
    {"smiles": "COc1c(-c2ccc(O)c(O)c2)oc2cc(O)cc(O)c2c1=O", "note": "[compound 5, 3-O-methylquercetin]", "values": [
      {"measurement": "EC50", "setting": "HepG2 cells [1]", "value": "19.5 ± 1.48", "unit": "µM"},
      {"measurement": "cytotoxicity", "setting": "HepG2 cells [2]", "value": "no significant effects"},
      {"measurement": "cytotoxicity revealed by the cell proliferative assay", "setting": "HepG2 cells [3]", "value": "slightly cytotoxicity"},
      {"measurement": "IC50", "setting": "HepG2 cells [3]; Homo sapiens", "value": "90.7 ± 2.45", "unit": "µM"},
      {"measurement": "cytotoxicity revealed by the cell proliferative assay", "setting": "HepG2 cells [3]; listed as 3-O-methylquercetin", "value": "low cytotoxicity"},
      {"measurement": "ORAC values", "setting": "[4]", "value": "4.71 ± 0.12", "unit": "μmol TE/μmol"},
      {"measurement": "CAT activity of PC value", "setting": "catalase (CAT); HepG2, pretreated with 15 μM", "value": "49.55 ± 3.21", "unit": "%"},
      {"measurement": "CAT activity of PC value", "setting": "catalase (CAT); HepG2, pretreated with 30 μM", "value": "69.34 ± 5.15", "unit": "%"},
      {"measurement": "CAT activity of PC value", "setting": "catalase (CAT); HepG2, pretreated with 45 μM", "value": "80.67 ± 7.13", "unit": "%"},
      {"measurement": "increase of CAT activity", "setting": "catalase (CAT); [8]", "value": "dose-dependent manner"},
      {"measurement": "SOD activity compared to NC cells", "setting": "[5]; HepG2, pretreated at a higher concentration", "value": "significant increase"},
      {"measurement": "SOD activity compared to NC cells", "setting": "[5]; HepG2, pretreated with 15 μM", "value": "insignificant increase"},
      {"measurement": "IC50", "setting": "[6]", "value": "> 200", "unit": "µM"},
      {"measurement": "GSH-Px activity of PC value", "setting": "[7]; HepG2, pretreated with 15 μM", "value": "59.74 ± 3.23", "unit": "%"},
      {"measurement": "GSH-Px activity of PC value", "setting": "[7]; HepG2, pretreated with 30 μM", "value": "69.08 ± 4.27", "unit": "%"},
      {"measurement": "GSH-Px activity of PC value", "setting": "[7]; HepG2, pretreated with 45 μM", "value": "83.44 ± 4.18", "unit": "%"},
      {"measurement": "increase of GSH-Px activity", "setting": "[7]; [8]", "value": "dose-dependent manner"}
    ]}
  ]
}
